# Assay results as given in paper PMC7948398, “Rapid kinetics reveal surprising flavin chemistry in bifurcating electron transfer flavoprotein from Acidaminococcus fermentans” (The Journal of Biological Chemistry, 2020).
# Target: T1, EtfAB; EtfaB (EtfAB from which α-FAD was removed) (Acidaminococcus fermentans, UniProt D2RIQ2+D2RIQ3)
# T1 construct: gene Acfer_0555; recombinant from pET-11a by autoinduction; AB heterodimer, 66 kDa; EtfAB holds α-FAD and β-FAD; EtfaB made by removing FAD from the A-subunit (phenyl Sepharose, KBr); with Electron transfer flavoprotein subunit alpha
# T1 sequence (D2RIQ2 1-263): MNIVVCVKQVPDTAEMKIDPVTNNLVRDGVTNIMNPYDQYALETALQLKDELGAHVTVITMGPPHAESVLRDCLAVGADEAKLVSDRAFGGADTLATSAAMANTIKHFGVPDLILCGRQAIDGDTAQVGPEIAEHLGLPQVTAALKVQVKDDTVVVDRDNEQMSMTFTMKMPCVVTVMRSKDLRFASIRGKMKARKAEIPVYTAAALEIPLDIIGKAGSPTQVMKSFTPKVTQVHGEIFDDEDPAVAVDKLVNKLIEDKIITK
# T1 sequence (D2RIQ3 1-340): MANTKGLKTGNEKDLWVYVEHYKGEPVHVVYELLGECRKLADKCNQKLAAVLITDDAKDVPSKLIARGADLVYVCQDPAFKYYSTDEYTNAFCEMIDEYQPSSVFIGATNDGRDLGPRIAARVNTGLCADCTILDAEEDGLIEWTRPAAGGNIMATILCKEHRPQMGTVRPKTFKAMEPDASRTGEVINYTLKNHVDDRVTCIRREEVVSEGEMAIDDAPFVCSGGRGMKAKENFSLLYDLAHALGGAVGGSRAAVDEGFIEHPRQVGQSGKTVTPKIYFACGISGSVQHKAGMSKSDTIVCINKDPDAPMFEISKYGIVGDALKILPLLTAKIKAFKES
# Assay: anaerobic stopped-flow, kobs at […] nm versus [NADH]
# Format: biochemical
# Settings: EtfaB form (β-FAD only, α-FAD removed), slow-reacting minor population (~16%); 50 mM potassium phosphate pH 7.0, 4 °C; site at β-FAD
smiles,measurement,value
NC(=O)C1=CN([C@@H]2O[C@H](COP(=O)(O)OP(=O)(O)OC[C@H]3O[C@@H](n4cnc5c(N)ncnc54)[C@H](O)[C@@H]3O)[C@@H](O)[C@H]2O)C=CC1 [NADH],Kd,3.8 ± 0.2 mM
